The results in this text go back to patent US6087363A, “Use of imidazole and indole compounds as inhibitors of nitric oxide synthase” (Harbor Branch Oceanographic Institution, Inc., priority 1999, dated 2000).

Assay [1] has as its target T1, iNOS (murine macrophage RAW 264.7 cells) (Mus musculus, UniProt P29477).
T1 construct: host or cells: RAW 264.7
Description: inhibition of whole cell iNOS activity in LPS/IFN-γ stimulated RAW 264.7 cells (nitrites, Griess reaction). The settings on record: RAW264.7, 24 hours, average of 4 wells, read-out: iNOS Inhibition, % Inhibit. It counts as cell-based. The protocol: Resultant nitrites in the TCM were measured by the Griess reaction and compared to stimulated cells incubated in the absence of test compound (0% inhibition) and unstimulated cells (100% inhibition). Each point represents the average inhibition of 4 wells±standard deviation.
Inhibition of whole cell iNOS activity by hamacanthin-A, dragmacidin and dragmacidin-D was tested to determine the specificity of the NOS inhibitory actions of these compounds.
RAW 264.7 cells were obtained from the American Type Culture Collection (Rockville, Md.) and maintained in tissue culture medium (TCM) (RPMI 1640 medium containing 100 U/ml penicillin, 100 μg/ml streptomycin, 60 μg/ml L-glutamine, 18 mM HEPES, 0.05 mg/ml gentamicin; Life Technologies, Gaithersburg, Md.) and supplemented with 10% rehatuin fetal bovine serum (Intergen Co., Purchase, N.Y.). Cells were subcultured at 3-4 day intervals, and used within 20 passages from the initial stock culture.
Test compounds were diluted in ethanol, aliquoted into appropriate wells of a 96 well microtiter plate and allowed to air dry for 1 hour at room temperature. RAW 264.7 cells were then subcultured into each well at a density of 5×10^4 cells/well in 200 μl of TCM containing lipopolysaccharide (1 ng/ml; Sigma) and interferon-γ (2 units/ml; PharMingen, San Diego, Calif.). Plates were incubated at 37° C., 5% CO2 for 24 hours. 150 μl of the TCM from each well was transferred to a second microtiter plate, 100 μl Griess reagent added to this TCM and the color intensity determined as above. Viability of the cells was determined by the methods of Mossman (Mossman, T. [1983] J. Immunol. Methods 65:55-63). Briefly, 150 μl of TCM containing 3-[4,5-dimethylthiazol-2-yl]-2,5-diphenyltetrazolium bromide (MTT, 2.5 mg/ml; Sigma) was added to each well containing the RAW 264.7 cells and incubated at 37° C., 5% CO2 for 3 hours. The medium was removed from all wells and replaced with 200 μl of acidified isopropyl alcohol (0.2% HCl). The plates were shaken for 15 minutes and the presence of the blue formazan was detected using a Spectra II spectrophotometer set at 570 nm and with a 650 nm reference filter.

For another assay, the system named is rat cerebral bNOS. Description: inhibition of bNOS activity (nitrite production, Griess reaction). It counts as biochemical. The settings on record: for bNOS Inhibition, % Inhib: 15 min, average of 4 wells; for IC50: approximately, FIG. 1; for specificity/selectivity of bNOS inhibition: at the concentrations tested, conclusion in words. Here is the method:
Rat cerebral bNOS in working buffer was incubated with L-arginine and the nitrites produced after 15 minutes were measured using the Griess reaction. Results are presented as the % inhibition of bNOS activity as compared to a negative control (0% inhibition) and positive control (100% inhibition). Each point represents the average inhibition ± standard deviation of 4 wells.
Marine-derived imidazole and indole containing compounds were tested for their ability to inhibit rat cerebral NOS at a concentration range of 1.0 to 50 μM.
Evaluation of activity of bNOS was performed by measuring nitrite production using the Griess reaction (Greenberg, S. S., J. Xie, J. J. Spitzer, J. F. Wang, J. Lancaster, M. B. Grisham, D. R. Powers, T. D. Giles [1995] Life Sci. 57:1949-1961) following an incubation of purified bNOS with L-arginine according to the methods of Ohshima et al. (Ohshima, H., S. Oguchi, H. Adachi, S. Iida, H. Suzuki, T. Sugimura, H. Esumi [1992] Biochem. Biophys. Res. Comm. 183:238-244). All reactions were carried out in 96 well microtiter plates. Briefly, imidazole and indole compounds were tested in reaction buffer (80 mM HEPES, pH 7.3; 1.0 mM EDTA; 1.5 mM CaCl2) containing calmodulin (330 units/ml; Sigma Chemical Co.), dithiothreitol (1.3 mM), tetrahydrobiopterin (66 μM; Sigma), flavin adenine dinucleotide (16 μM; Sigma), and bovine brain nitric oxide synthase (1.67 units/ml; Sigma). The solutions were mixed and equilibrated at 37° C. for 2 minutes prior to the addition of L-arginine (113 μM; Sigma) and NADPH (200 μM; Sigma). Final reaction volume was 150 μl per well. The enzymatic reaction occurred at 37° C. for 15 minutes and nitrite formation detected by the addition of 100 μl of Greiss's reagent (1% sulfanilamide, 0.15% n-1-(naphthyl)-ethylenediamine dihydrochloride, 2.5% phosphoric acid; Sigma) and the color intensity determined by spectrophotometric absorbance at 540 nm (Spectra II; Tecan US Inc., Durham, N.C.).
A general note: The Griess reaction detects nitrite, a stable product of nitric oxide.

The next assay deals with calcineurin (Homo sapiens, UniProt Q08209). Description: inhibition of calcineurin activity (PNPP dephosphorylation). Format: biochemical. Particulars: for IC50: PNPP substrate, 30° C., 1 hour; for potency on calcineurin compared with bNOS: comparison of IC50 for calcineurin and bNOS; for inhibition of calcineurin activity: at concentrations below 50 μM. Here is the method: Inhibition of calcineurin, a calmodulin-dependent enzyme (Klee, C. B., H. Ren, X. Wang [1998] J. Biol. Chem. 273:13367-13370), by marine-derived imidazoles and indoles was tested as an indirect means of assessing the effect of these compounds on calmodulin. […] Neither hamacanthin-A nor dragmacidin were able to inhibit calcineurin activity by more than 33% at concentrations below 50 μM.
Calcineurin activity was measured by the colorimetric method based on the dephosphorylation of p-nitrophenyl phosphate (PNPP) (Greenberg, S. S., J. Xie, J. J. Spitzer, J. F. Wang, J. Lancaster, M. B. Grisham, D. R. Powers, T. D. Giles [1995] Life Sci. 57:1949-1961) in a buffer of 0.5 mM MnCl2, 1 mM dithiothreitol, 50 mM tris base (pH 7.5), 0.05 mM CaCl2, and 10 μg/ml calmodulin (Sigma). Briefly, marine-derived compounds in ethanol were transferred to 96-well plates, air dried and resuspended in the working buffer. Calcineurin was added to a final concentration of 2.75 μg protein/ml and the enzyme allowed to equilibrate at 30° C. for 10 minutes prior to the addition of substrate. PNPP was added (final concentration≈50 mM) and the reaction mixture incubated at 30° C. for 1 hour. The optical density was measured at 405 nm in a Spectra II spectrophotometer.

Where only a bound is given, the exact number is not on record here.

A word on the inhibition: it is the change of the read-out against control, counted positive when it falls. In general, IC50 refers to the concentration that gives 50% inhibition. Regarding `CC(c1cnc(N)[nH]1)c1ccc(O)c2[nH]cc(-c3cnc(-c4c[nH]c5cc(Br)ccc45)c(=O)[nH]3)c12` (stereo not drawn) [Dragmacidin-D, dragmacidin-D], in assay [1], the inhibition at 2.5 µM is -3.55%, the inhibition at 5 µM is -3.42%, the inhibition at 10 µM was -0.61% and the inhibition at 25 µM amounted to 2.34%. For the same compound, the inhibition at 50 µM in assay [1] turned out to be 26.9%. For the same compound, the “bNOS Inhibition, % Inhib” value with rat cerebral bNOS (1 μM) is 16.89%. Also, the “bNOS Inhibition, % Inhib” value in the assay on rat cerebral bNOS (5 μM) was found to be 74.22%. The “bNOS Inhibition, % Inhib” value in the assay with rat cerebral bNOS (10 μM) amounted to 96.44%. The “bNOS Inhibition, % Inhib” value with rat cerebral bNOS (50 μM) turned out to be 99.56%. In addition, in the assay on rat cerebral bNOS, the IC50 is around 4 µM and the “specificity/selectivity of bNOS inhibition” value is “able to specifically block the activity of bNOS”. Besides, on calcineurin, the IC50 came out at 10 µM and the “potency on calcineurin compared with bNOS” value is “a more potent inhibitor of bNOS”.

Turning to `O=C(c1nc(-c2c[nH]c3ccccc23)c[nH]1)c1c[nH]c2cc(O)ccc12` [Topsentin, topsentin], the “bNOS Inhibition, % Inhib” value is on record as 5.08% with rat cerebral bNOS (1 μM), 5.47% in the assay with rat cerebral bNOS (5 μM), -0.39% in the assay with rat cerebral bNOS (10 μM) and 22.66% with rat cerebral bNOS (50 μM). Also, the “inhibitory effects on the production of NO (bNOS)” value in the assay on rat cerebral bNOS (1.0 to 50 μM) was “minimal inhibitory effects”. The “specificity/selectivity of bNOS inhibition” value with rat cerebral bNOS was “not able to selectively inhibit rat cerebral bNOS”.

Regarding `Brc1ccc2c(-c3c[nH]c(-c4c[nH]c5ccccc45)n3)c[nH]c2c1` [Nortopsentin-C, nortopsentin-C], the “bNOS Inhibition, % Inhib” value was found to be 20.16% with rat cerebral bNOS (1 μM), 9.88% in the assay with rat cerebral bNOS (5 μM), 16.05% in the assay on rat cerebral bNOS (10 μM) and 98.77% in the assay on rat cerebral bNOS (50 μM). Further, the IC50 in the assay on rat cerebral bNOS was around 27 µM; on calcineurin it was 11.4 µM. For the same compound, the “specificity/selectivity of bNOS inhibition” value in the assay with rat cerebral bNOS is given as “not able to selectively inhibit rat cerebral bNOS”. Besides, the “potency on calcineurin compared with bNOS” value on calcineurin is “a concentration lower than its IC50 for bNOS”.

Consider `O=C1NC(c2c[nH]c3cc(Br)ccc23)CN=C1c1c[nH]c2cc(Br)ccc12` (stereo not drawn) [Hamacanthin-A, hamacanthin-A], for which, in assay [1], the inhibition at 2.5 µM was found to be 2.6%, the inhibition at 5 µM was -0.61%, the inhibition at 10 µM was 0.69% and the inhibition at 25 µM worked out at 0.65%. Besides, in assay [1], the inhibition at 50 µM stood at 5.54%. In addition, in the assay with rat cerebral bNOS (1 μM), the “bNOS Inhibition, % Inhib” value turned out to be 35.42%. The “bNOS Inhibition, % Inhib” value in the assay with rat cerebral bNOS (5 μM) turned out to be 43.33%. Moreover, the “bNOS Inhibition, % Inhib” value in the assay on rat cerebral bNOS (10 μM) is recorded as 75.42%. Moreover, the “bNOS Inhibition, % Inhib” value in the assay on rat cerebral bNOS (50 μM) worked out at 99.58%. Besides, in the assay with rat cerebral bNOS, the IC50 is around 7.5 µM and the “specificity/selectivity of bNOS inhibition” value is recorded as “able to specifically block the activity of bNOS”. At calcineurin, the “inhibition of calcineurin activity” value is at most 33%.

On to `CN1C[C@H](c2c[nH]c3c(Br)c(Br)cc(O)c23)NC[C@H]1c1c[nH]c2cc(Br)ccc12` (relative stereo) [Dragmacidin, dragmacidin], for which, in assay [1], the inhibition at 2.5 µM was -3.94%, the inhibition at 5 µM was -8.44%, the inhibition at 10 µM is -6.23% and the inhibition at 25 µM amounted to 3.16%. Besides, in assay [1], the inhibition at 50 µM was found to be 15.8%. Also, the “bNOS Inhibition, % Inhib” value in the assay on rat cerebral bNOS (1 μM) came to 38.94%. For the same compound, the “bNOS Inhibition, % Inhib” value in the assay with rat cerebral bNOS (5 μM) stood at 3.54%. The “bNOS Inhibition, % Inhib” value in the assay on rat cerebral bNOS (10 μM) was determined as 32.74%. Further, the “bNOS Inhibition, % Inhib” value in the assay on rat cerebral bNOS (50 μM) stood at 90.27%. In the assay with rat cerebral bNOS, the IC50 is around 20 µM and the “specificity/selectivity of bNOS inhibition” value is “able to specifically block the activity of bNOS”. At calcineurin, the “inhibition of calcineurin activity” value is given as at most 33%.
